Square brackets hold non-standard residues; d marks the D form. Peptide text beside a SMILES is read from it.
Assays:
[1] = human, in vivo
Description: (§1) The dose escalation study followed a traditional “3+3” scheme and included doses of 6, 12, 24, 48, and 96 mg/m^2 intravenous (i.v.) dTCApFs, 3 times/week in consecutive 28-day cycles. In all 3-patient cohorts, there were 2-4 weeks between the first dose for the first and second patients, and ≥1 week for the third patient. New dose levels started after follow up of ≥28 days for 3 patients at the previous level. MTD was defined as the highest dose level at which ≥1 of 3 subjects experience a DLT during their first cycle of treatment. […] In addition, PK parameters, including area under the curve (AUC), maximal plasma concentration (Cmax), and plasma half-life (t1/2) were determined. PK parameters were estimated using non-compartmental models.
(§2) dTCApFs powder for solution for injection is supplied as a lyophilized 5 mL vial containing either 15 mg (7.5 mg/mL) or 10 mL vial containing 80 mg (40 mg/mL) of the active substance with 4.8% mannitol, for reconstitution to a final volume of 2 mL with water for injection per vial as described above. The reconstituted 2 mL vial of dTCApFs powder for solution for injection must thereafter be diluted to a final volume 100 mL in aqueous Dextrose 5% for infusion for dose levels up to and including 48 mg/m2. For dose levels above 48 mg/m2, the final dilution volume was 250 mL. dTCApFs for injection was administered intravenously (iv) during 60 minutes.
(§3) PK parameters, including AUC (0-24), Cmax, Cmin, Tmax and t1/2 are estimated using non-compartmental models. Comparisons across dose levels are made to assess proportionality.

[2] = test system: healthy human peripheral immune cells; assay type: cell-based; settings: data not shown
Description: Therefore, without wishing to be bound by theory, dTCApFs appears to selectively affect cancer cells.

[3] = Pharmacokinetics of dTCApFs, phase I dose escalation study, i.v. 3 times/week; settings: human, plasma
Description: as §1, §2, §3

CC(C)C[C@@H](NC(=O)[C@H](NC(=O)[C@@H](CO)NC(=O)[C@H]1CCCN1C(=O)[C@@H](CC(C)C)NC(=O)[C@@H](Cc1ccccc1)NC(=O)[C@@H](Cc1ccccc1)NC(=O)[C@H](NC(=O)[C@@H](Cc1c[nH]c2ccccc12)NC(=O)[C@H](N)Cc1c[nH]c2ccccc12)[C@H](C)O)[C@H](C)O)C(=O)N[C@H](Cc1c[nH]c2ccccc12)C(=O)N[C@H](CCC(=O)O)C(=O)N[C@H](CCCNC(=N)N)C(=O)N[C@H](CCCCN)C(=O)O [dTCApFs, Trp Trp Thr Phe Phe Leu Pro Ser Thr Leu Trp Glu Arg Lys] (H-[dW][dW][dT][dF][dF][dL][dP][dS][dT][dL][dW][dE][dR][dK]-OH; N-terminus and C-terminus assumed)
relation of t1/2, Cmax and AUC0 to dose [1]: linearly related to dose
cell death [2]: only minor cell death occurred
Cmax ([3]; intravenous, 12 mg/m^2, Cmax, Cycle 2, Day 1, 12 mg/m^2, n = 4): 6050 ng/mL
Cmax ([3]; intravenous, 24 mg/m^2, Cmax, Cycle 2, Day 1, 24 mg/m^2, n = 4): 14600 ng/mL
AUC ([3]; intravenous, 96 mg/m^2, AUC0, Cycle 2, Day 1, 96 mg/m^2, n = 3): 295000 ng·h/mL
AUC ([3]; iv, 6 mg/m2, AUC0, Cycle 1, Day 1, 6 mg/m^2, n = 3): 3810 ng·h/mL
AUC ([3]; iv, 6 mg/m2, AUC0, Cycle 2, Day 1, 6 mg/m^2, n = 3): 9720 ng·h/mL
Cmax ([3]; iv, 6 mg/m2, Cmax, Cycle 1, Day 1, 6 mg/m^2, n = 3): 1210 ng/mL
Cmax ([3]; iv, 6 mg/m2, Cmax, Cycle 2, Day 1, 6 mg/m^2, n = 3): 1540 ng/mL
half-life ([3]; iv, 6 mg/m2, T1/2, Cycle 1, Day 1, 6 mg/m^2, n = 3): 2.3 h
half-life ([3]; iv, 6 mg/m2, T1/2, Cycle 2, Day 1, 6 mg/m^2, n = 3): 2.8 h
AUC ([3]; iv, 12 mg/m2, AUC0, Cycle 1, Day 1, 12 mg/m^2, n = 4): 12900 ng·h/mL
AUC ([3]; iv, 12 mg/m2, AUC0, Cycle 2, Day 1, 12 mg/m^2, n = 4): 11500 ng·h/mL
Cmax ([3]; iv, 12 mg/m2, Cmax, Cycle 1, Day 1, 12 mg/m^2, n = 4): 6050 ng/mL
half-life ([3]; iv, 12 mg/m2, T1/2, Cycle 1, Day 1, 12 mg/m^2, n = 4): 2.1 h
half-life ([3]; iv, 12 mg/m2, T1/2, Cycle 2, Day 1, 12 mg/m^2, n = 4): 2 h
AUC ([3]; iv, 24 mg/m2, AUC0, Cycle 1, Day 1, 24 mg/m^2, n = 4): 49600 ng·h/mL
AUC ([3]; iv, 24 mg/m2, AUC0, Cycle 2, Day 1, 24 mg/m^2, n = 4): 57100 ng·h/mL
Cmax ([3]; iv, 24 mg/m2, Cmax, Cycle 1, Day 1, 24 mg/m^2, n = 4): 14600 ng/mL
half-life ([3]; iv, 24 mg/m2, T1/2, Cycle 1, Day 1, 24 mg/m^2, n = 4): 3.2 h
half-life ([3]; iv, 24 mg/m2, T1/2, Cycle 2, Day 1, 24 mg/m^2, n = 4): 3.7 h
AUC ([3]; iv, 48 mg/m2, AUC0, Cycle 1, Day 1, 48 mg/m^2, n = 4): 79900 ng·h/mL
AUC ([3]; iv, 48 mg/m2, AUC0, Cycle 2, Day 1, 48 mg/m^2, n = 4): 100000 ng·h/mL
Cmax ([3]; iv, 48 mg/m2, Cmax, Cycle 1, Day 1, 48 mg/m^2, n = 4): 18300 ng/mL
Cmax ([3]; iv, 48 mg/m2, Cmax, Cycle 2, Day 1, 48 mg/m^2, n = 4): 22100 ng/mL
half-life ([3]; iv, 48 mg/m2, T1/2, Cycle 1, Day 1, 48 mg/m^2, n = 4): 4.9 h
half-life ([3]; iv, 48 mg/m2, T1/2, Cycle 2, Day 1, 48 mg/m^2, n = 4): 4.6 h
AUC ([3]; iv, 96 mg/m2, AUC0, Cycle 1, Day 1, 96 mg/m^2, n = 3): 207000 ng·h/mL
Cmax ([3]; iv, 96 mg/m2, Cmax, Cycle 1, Day 1, 96 mg/m^2, n = 3): 33000 ng/mL
Cmax ([3]; iv, 96 mg/m2, Cmax, Cycle 2, Day 1, 96 mg/m^2, n = 3): 32000 ng/mL
half-life ([3]; iv, 96 mg/m2, T1/2, Cycle 1, Day 1, 96 mg/m^2, n = 3): 6 h
half-life ([3]; iv, 96 mg/m2, T1/2, Cycle 2, Day 1, 96 mg/m^2, n = 3): 8.5 h

— patent US11813305B2, “Endoplasmic reticulum stress as a predictive tool in cancer therapy and a combination therapy for the treatment of cancer” (IMMUNE SYSTEM KEY LTD., priority 2016, dated 2023)
